Like-named read-outs stand apart in the source and are kept apart here.
Experiments:
Escherichia coli = test: MIC by broth microdilution against E. coli; format: cell-based
Procedure: (§1) In a typical study MIC tests were performed by broth microdilution in line with CLSI susceptibility testing standards. Bacterial inocula were prepared at ca. 1×10^6 CFU/mL by diluting 100-fold a 0.5 McFarland suspension in CA-MHB with TES. Microtiter plate wells containing 50 μL of antibacterial solutions at 2×the final concentrations were diluted 2-fold with 50 μL of inoculum to give a final inoculum of ca. 5×10^5 CFU/mL and desired test concentrations of antibacterial agents. Test microtiter plates were incubated according to CLSI guidelines and read visually. MIC values corresponded to the first well with no visible growth.
The results of antibacterial activity of amikacin, Ceftazidime-avibactam, Ceftriaxone with sulbactam and EDTA, Meropenem and Meropenem with avibactam and EDTA against highly resistant strains of Escherichia coli are given in Table 3. […] There was a marked improvement in antibacterial activity, compared to MEM alone, observed for the triple combination MEM/AVI [4 mg/L]/EDTA [10 mM] with a MIC90 at 0.004 μg/mL

P. aeruginosa [1] = test: MIC by broth microdilution against P. aeruginosa; format: cell-based, Pseudomonas aeruginosa
Procedure: as §1
The results of antibacterial activity of amikacin, Ceftazidime-avibactam, Ceftriaxone with sulbactam and EDTA, Meropenem and Meropenem with avibactum and EDTA against highly resistant strains of P. aeruginosa are given in Table 5. As may be seen, the activity of the comparators was much lower although CRO/S4/E10 maximum MIC90 were much lower at ≤0.03 μg/mL.

[2] = system: Stenotrophomonas maltophilia; test: MIC by broth microdilution against Stenotrophomonas maltophilia; format: cell-based; conditions: highly resistant strains
Procedure: as §1
The results of antibacterial activity of amikacin, Ceftazidime-avibactam, Ceftriaxone with sulbactam and EDTA, Meropenem and Meropenem with avibactum and EDTA against highly resistant strains of Stenotrophomonas maltophilia are given in Table 8.

P. aeruginosa [3] = test: Frequency of Resistance (FOR) Study, P. aeruginosa; format: cell-based; further: key: TMTC: To more to count
Procedure: Objective: The in-vitro study was conducted to determine the frequency of resistance in 8 characterized isolates.
• Isolates: 8 isolates-E. coli (3), K. pneumoniae (2), A. baumannii (1) and P. aeruginosa (2) • Compound tested: Meropenem; Meropenem Avibactam (4); Meropenem EDTA (10 mM); Meropenem Avibactam (4) EDTA (10 mM) • Antibiotic Concentration used: […]

C[C@@H](O)[C@H]1C(=O)N2C(C(=O)O)=C(S[C@@H]3CN[C@H](C(=O)N(C)C)C3)[C@H](C)[C@H]12 [Meropenem, (4R,5S,6S)-3-(((3S,5S)-5-(dimethylcarbamoyl)pyrrolidin-3-yl)thio)-6-((R)-1-hydroxyethyl)-4-methyl-7-oxo-1-azabicyclo[3.2.0]hept-2-ene-2-carboxylic acid]
MIC50 (Escherichia coli; Escherichia coli, highly resistant strains, read-out: MIC50): > 32 µg/mL
MIC90 (Escherichia coli; Escherichia coli, highly resistant strains, read-out: MIC90): > 32 µg/mL
MIC50 (Escherichia coli; MEM-NS isolates (n=105)): > 32 µg/mL
MIC90 (Escherichia coli; MEM-NS isolates (n=105)): > 32 µg/mL
MIC50 (Escherichia coli; highly resistant strains): >32 µg/mL
MIC90 (Escherichia coli; highly resistant strains): >32 µg/mL
MEM-NS isolates (Escherichia coli; n=105): 88.2%
MIC90 (P. aeruginosa [1]; MEM-NS isolates (n=120)): > 32 µg/mL
MIC50 (P. aeruginosa [1]; Pseudomonas aeruginosa, highly resistant strains): > 32 µg/mL
MIC90 (P. aeruginosa [1]; Pseudomonas aeruginosa, highly resistant strains, read-out: MIC90): > 32 µg/mL
MIC90 (P. aeruginosa [1]; highly resistant strains): >32 µg/mL
MEM-NS isolates (P. aeruginosa [1]; n=120): 92.7%
MIC50 ([2]; Stenotrophomonas maltophilia, read-out: MIC50): > 32 µg/mL
MIC90 ([2]; Stenotrophomonas maltophilia, read-out: MIC90): > 32 µg/mL
MIC50 [2]: >32 µg/mL
MIC90 [2]: >32 µg/mL
count, 24 H of Incubation (P. aeruginosa [3]; strain 2 - P. aeruginosa, ATB concentration 4x): TMTC
count, 24 H of Incubation (P. aeruginosa [3]; strain 2 - P. aeruginosa, ATB concentration 8x): TMTC
count, 24 H of Incubation (P. aeruginosa [3]; strain 2 - P. aeruginosa, ATB concentration 16x): TMTC
count, 24 H of Incubation (P. aeruginosa [3]; strain 3 - P. aeruginosa, ATB concentration 4x): TMTC
count, 24 H of Incubation (P. aeruginosa [3]; strain 3 - P. aeruginosa, ATB concentration 8x): TMTC
count, 24 H of Incubation (P. aeruginosa [3]; strain 3 - P. aeruginosa, ATB concentration 16x): TMTC
